Reference: patent publication US20090130759A1, “Culture Medium Containing Kinase Inhibitor, and Use Thereof” (The University Court of the University of Edinburgh, priority 2005, published 2009)

Key:
mouse and human ES cells = test: Attempt to repeat reported effects of GSK3 inhibitor on ES cells (Sato et al); format: cell-based; settings: attempted repeat of published results
Text: Sato N, et al, Nat. Med. 2004, January 10(1) pp 55-63 describe the effects of a Glycogen Synthase Kinase 3 (GSK3) inhibitor, 6-bromoindirubin-3′-oxime, on mouse and human ES cells in serum containing medium. These effects, however, were observed only over a very short time frame, too short for firm conclusions to be drawn, and the influence of unknown factors in the undefined media used in that study may be significant.
Instead, ES cells died or differentiated in GSK-3β inhibitors alone.

mouse ES cells = test: Self-renewal culture of mouse ES cells with GSK3 inhibitor and gp130 signalling (LIF); format: cell-based; settings: for promotion of self renewal of ES cells: GSK3 inhibitor used in ES cell culture
Procedure: (§1) Mouse and human ES cells were grown under various conditions, using N2B27 medium unless otherwise stated and in the presence or absence of the GSK-3β inhibitors CHIR99021, AR-AO144-18, SB216763 and SB415286.
N2 100× stock solution. For 10 ml: mix 1 ml insulin (final concentration 2.5 mg/ml) with 1 ml apo-transferrin (final concentration 10 mg/ml), 0.67 ml BSA (final concentration 5 mg/ml), 33 μl progesterone (final concentration […]), 100 μl putrescine (final concentration 1.6 mg/ml), 10 μl sodium selenite (final concentration 3 μM) and 7.187 ml DMEM/F12. Store at 4° C. and use within 1 month.
DMEM/F12-N2 medium: to 100 ml of DMEM/F12, add 1 ml of N2 100× stock solution. The final concentration of each component of N2 in the DMEM/F12 medium is: insulin, 25 μg/ml; apo-transferrin, 100 μg/ml; progesterone, 6 ng/ml; putrescine, 16 μg/ml; sodium selenite, 30 nM; BSA 50 μg/ml. Store at 4° C. and use within 1 month.
Neurolbasal/B27 medium: to 100 ml of Neurolbasal™ Medium, add 2 ml of B27 and 0.5-1 ml of 200 mM L-glutamine. Store at 4° C. and use within 1 month.
(§2) N2B27 medium: mix DMEM/F12-N2 medium with Neurolbasal/B27 medium in the ratio of 1:1. Add β-mercaptoethanol to a final concentration of 0.1 mM from the 0.1M stock. Store at 4° C. and use within 1 month.

GSK3 = settings: cited from earlier work
human ES cells [1] = test: Human ES cell self-renewal in N2B27 medium on feeder cells; format: cell-based
Procedure: as §2
a) N2B27 medium with bFGF (10 ng/ml) and grown on feeder cells (HS27 human foreskin fibroblasts); and b) the same as a) but adding BMP4 (5 ng/ml) and LIF (10 ng/ml) as well as bFGF.

human ES cells [2] = test: Feeder-free, conditioned medium-free culture of human ES cells after forced expression of an Eras gene; format: cell-based
Procedure: as §1, §2
a) in N2B27 medium with bFGF, grown on laminin, fibronectin, vitronectin or matrigel; b) the same as a) but adding BMP4 (5 ng/ml) as well as bFGF; and c) the same as a) but adding a GSK-3β inhibitor as well as bFGF.

[3] = N2B27, feeder cells, BMP4 (5 ng/ml) and LIF (10 ng/ml) added as well as bFGF

O=C1Nc2cc(Br)ccc2/C1=C1/Nc2ccccc2/C1=N\O [6-bromoindirubin-3′-oxime]
effects on mouse and human ES cells versus those described by Sato et al (mouse and human ES cells): effects opposite to those described

COc1ccc(CNC(=O)Nc2ncc([N+](=O)[O-])s2)cc1 [AR-AO144-18]
promotion of self renewal of ES cells (mouse ES cells): promote self renewal of ES cells

Cc1c[nH]c(-c2cnc(NCCNc3ccc(C#N)cn3)nc2-c2ccc(Cl)cc2Cl)n1 [CHIR 99021]
specificity for GSK3 (GSK3): specific for GSK3 | overall result of use in ES cell culture (mouse ES cells): Good results | promotion of self renewal of ES cells (mouse ES cells): promote self renewal of ES cells | E14.1A ES cells weaned off feeder cells (FIG. 1) (mouse ES cells; LIF+CHIR99021 with serum): weaned off feeder cells and grown | self renewal of mouse ES cells (mouse ES cells; combination with LIF in a serum-free, fully defined medium): improved self renewal of mouse ES cells with very little differentiation

Cn1cc(C2=C(c3ccc(Cl)cc3Cl)C(=O)NC2=O)c2ccccc21 [SB216763]
promotion of self renewal of ES cells (mouse ES cells): promote self renewal of ES cells

O=C1NC(=O)C(c2ccccc2[N+](=O)[O-])=C1Nc1ccc(O)c(Cl)c1 [SB415286]
promotion of self renewal of ES cells (mouse ES cells): promote self renewal of ES cells

CHIR 98014
specificity for GSK3 (GSK3): specific for GSK3 | overall result of use in ES cell culture (mouse ES cells): Good results | promotion of self renewal of ES cells (mouse ES cells): promote self renewal of ES cells

LIF: gp130 receptor binding cytokine
sustaining human ES cell self-renewal (human ES cells [1]; [3]): could sustain human ES cell self-renewal

bFGF: FGF receptor agonist
growth of human ES cells in feeder-free, conditioned medium-free conditions (human ES cells [2]; N2B27 with bFGF, on laminin, fibronectin, vitronectin or matrigel): grew in feeder-free and conditioned medium-free conditions | sustaining human ES cell self-renewal (human ES cells [1]; N2B27 medium with bFGF (10 ng/ml), on HS27 human foreskin fibroblast feeder cells): could sustain human ES cell self-renewal

B1: BMP4: agonist of the TGF-β superfamily (protein, UniProt P12644 293-408, looked up)
Bone morphogenetic protein 4: SPKHHSQRARKKNKNCRRHSLYVDFSDVGWNDWIVAPPGYQAFYCHGDCPFPLADHLNSTNHAIVQTLVNSVNSSIPKACCVPTELSAISMLYLDEYDKVVLKNYQEMVVEGCGCR
growth of human ES cells in feeder-free, conditioned medium-free conditions (human ES cells [2]; N2B27 with BMP4 (5 ng/ml) as well as bFGF): grew in feeder-free and conditioned medium-free conditions | sustaining human ES cell self-renewal (human ES cells [1]; [3]): could sustain human ES cell self-renewal
